Measurements: patent US11291655B2, “RAD51 inhibitors” (Cyteir Therapeutics, Inc., priority 2017, dated 2022)
pEC50: −log10 of the molar value.

system: Daudi Cell Culture; assay: Compound primary screening in Daudi cell culture; assay type: cell-based; conditions: Homo sapiens, 168 h; Daudi cells, 1250 cells per well, reads on Day 7
Method: Compound Primary Screening
1. Materials and Supplies
Plastic ware and consumables needed for this experiment include: Cell Culture media; Evaporation Buffer media; 100% DMSO; 96 well U-bottom sterile culture plates; 250 mL bottle; 1.5 mL Opaque amber epi tubes; Epi Tube rack; 300 mL reservoirs; 25 mL reservoir; 25 mL serological pipette tips; 5 mL serological pipette tips P1000 Pipette Tips; and P200 Pipette Tips.
Equipment needed for this experiment include: Viaflo 384 liquid handler; Eppendorf serological pipette; Eppendorf P1000 Pipette; and Eppendorf P200 Pipette
Daudi Cell Culture is also needed for this experiment.
Lastly, compounds (e.g., the compounds of this invention) to be tested are needed.
All steps were performed in a sterile environment inside the Biosafety cabinet.
A 96 well u-bottom plate was prepared by writing the experiment number, plate number, date and initials in the top right corner of the plate lid. With a sterile 300 ml reservoir, and 25 ml serological pipette, evaporation buffer media was pipetted into reservoir in 25 ml increments. Using the liquid handler, 150 ul of evaporation buffer media was pipetted from reservoir into rows A and H, and Columns 1 and 12 of the 96 well u-bottom plate. Cell cultures were counted to obtain the density of cells per ml, and the culture viability. The cell density information was used to obtain 1,000,000 cells from culture using a 5 mL serological pipette into an epi tube. The cell density information from the culture was used to calculate the number of cells and volume of media needed for the assay to seed 1250 cells in 130 ul of media per available culture well in the 96 well u-bottom plate. Rows B through F were used for cells (50 wells in total), with row G left for an empty media control. The calculation was overestimated by 10 mL to account for the dead volume in the 300 ml reservoir. Once the media volume was calculated, the appropriate volume of media was pipetted in 25 mL increments into the 250 mL bottle using a 25 mL serological pipette. The 250 ml bottle was capped tightly, and placed into a 37° C. water bath for 2 minutes. While the culture media was warming, 10 mL of fresh media was pipetted from the 500 mL culture media bottle into a sterile 25 mL reservoir. Using the Eppendorf multichannel pipette, 130 ul of media was pipetted from the 25 mL reservoir into row G of the 96 well u-bottom plate. Once the 250 mL bottle of media was warmed, the volume of culture needed was pipetted into the bottle, and mixed gently with a 25 mL serological pipette as to not create bubbles, and then the contents of the bottle were pipetted into a new 300 mL reservoir. Using the liquid handler, 130 ul of culture was pipetted from the 300 mL reservoir into rows B through F of the 96 well u-bottom plate. Once the culture was added, the plate was placed into a 37° C. incubator until the compound master plate was prepared for use.
Two 96 well u-bottom plates were prepared by writing the master plate name in the upper right corner of the plate lid. Labeling one DMSO master and the other Media Master. The compounds of interest were obtained from the laboratory freezer, and placed into a 25 well storage box with a lid, and set the box aside. The compounds were vortexed after thawing but before use. Using an automatic multichannel pipette, 20 ul of 100% DMSO was pipetted into wells B3-B11 through G3-G11 of the DMSO master plate. For each compound on the master plate, 50 ul of the compound were pipetted in the appropriate well of row 2 (reference plate map to determine appropriate well). A serial dilution was prepared beginning by aspirating 20 ul from row 2 and mixing with row 3, repeating until row 11 was reached. Using the liquid handler, 194 ul of Daudi media was dispensed into wells B2-B11 through G2-G11 of the Media master plate. Using the liquid handler, 6 ul from the DMSO master plate was aspirated and dispensed into the media master plate, mixing 100 ul twice. […]

SMILES	pEC50
CC(C)OC(=O)Nc1ccc(-c2ncc(-c3ccc(NC(=O)OCc4ccncc4)cc3S(=O)(=O)NC(C)(C)C)s2)cc1 [Compound B4]	> 6.00
CC(=O)Nc1ccc(-c2cnc(-c3ccc(OC(=O)NC(C)C)cc3)s2)c(S(=O)(=O)NC(C)(C)C)c1 [Compound A5]	> 5.30
CC(C)NC(=S)Nc1ccc(-c2ncc(-c3ccc(NC(=O)NCc4ccccc4)cc3S(=O)(=O)NC(C)(C)C)s2)cc1 [Compound L10]	> 5.30
CC(=O)Nc1ccc(-c2cnc(-c3ccc(NC(=S)NC(C)C)cc3)s2)c(S(=O)(=O)NCCN(C)C)c1 [Compound D16]	< 5.00
CC(=O)Nc1ccc(-c2cnc(-c3ccc(NC(=S)NC(C)C)cc3)s2)c(S(=O)(=O)NC(C)(C)C)c1 [Compound D30]	> 5.30
CC(=O)Nc1ccc(-c2cnc(-c3ccc(NC(=S)NC(C)C)cc3)s2)c(S(=O)(=O)N(C)C)c1 [Compound D10]	> 6.00
CC(C)OC(=O)Nc1ccc(-c2ncc(-c3ccc(-c4cnc[nH]4)cc3S(=O)(=O)NC(C)(C)C)s2)cc1 [Compound A6]	> 5.30
CC(C)NC(=S)Nc1ccc(-c2ncc(-c3ccc(NC(=O)NCc4cncnc4)cc3S(=O)(=O)NC(C)(C)C)s2)cc1 [Compound M5]	< 5.00
COc1cc(-c2ncc(-c3ccc(NC(=O)OC(C)C)cc3S(=O)(=O)NC(C)(C)C)s2)ccc1NC(=O)OC(C)C [Compound R3]	> 5.30
CC(C)OC(=O)Nc1ccc(-c2ncc(-c3ccc(N4CC(Cc5ccccc5)OC4=O)cc3S(=O)(=O)NC(C)(C)C)s2)cc1 (centres unmarked) [Compound J27, isopropyl (4-(5-(4-(5-benzyl-2-oxooxazolidin-3-yl)-2-(N-(tert-butyl)sulfamoyl)phenyl)thiazol-2-yl)phenyl)carbamate]	< 5.00
COC(=O)CNS(=O)(=O)c1cc(NC(C)=O)ccc1-c1cnc(-c2ccc(NC(=S)NC(C)C)cc2)s1 [Compound D20]	< 5.00
CC(C)OC(=O)Nc1ccc(-c2ncc(-c3ccc(NC(=O)OCc4cccnc4)cc3S(=O)(=O)NC(C)(C)C)s2)cc1 [Compound B9]	> 6.00
CC(=O)Nc1ccc(-c2cnc(-c3ccc(NC(=S)NC(C)C)cc3)s2)c(S(=O)(=O)NC(CO)CO)c1 [Compound D11]	< 5.00

Next, values leading:

pEC50	SMILES
< 5.00	CC(C)OC(=O)Nc1ccc(-c2ncc(-c3ccc(CNC(=O)C(C)(C)C)cc3S(=O)(=O)NC(C)(C)C)s2)cc1 [Compound P3]
> 6.00	C=C(C)COC(=O)Nc1ccc(-c2cnc(-c3ccc(NC(=O)OC(C)C)cc3)s2)c(S(=O)(=O)NC(C)(C)C)c1 [Compound B5]
> 5.30	CC(C)OC(=O)Nc1ccc(-c2ncc(-c3ccc(N4CCOC4=O)cc3S(=O)(=O)NC(C)(C)C)s2)cc1 [Compound J23, isopropyl N-[4-[5-[2-(tert-butylsulfamoyl)-4-(2-oxooxazolidin-3-yl)phenyl]thiazol-2-yl]phenyl]carbamate]
< 5.00	CC(C)OC(=O)Nc1ccc(-c2ncc(-c3ccc(CNC(=O)CCO)cc3S(=O)(=O)NC(C)(C)C)s2)cc1 [Compound O3]
> 5.30	CC(C)OC(=O)Nc1ccc(-c2ncc(-c3ccc(NC(=O)OCCN)cc3S(=O)(=O)NC(C)(C)C)s2)cc1 [Compound B13]
> 5.30	CC(C)OC(=O)Nc1ccc(-c2ncc(-c3ccc(C(N)=O)cc3S(=O)(=O)NC(C)(C)C)s2)cc1 [Compound I6]
< 5.00	CC(C)OC(=O)Nc1ccc(-c2ncc(-c3ccc(NS(C)(=O)=O)cc3S(=O)(=O)NC(C)(C)C)s2)cc1 [Compound H11]
> 5.30	CC(C)OC(=O)Nc1ccc(-c2ncc(-c3ccc(NC(=O)[C@@H]4CCCN4)cc3S(=O)(=O)NC(C)(C)C)s2)cc1 [Compound H1]
< 5.00	CC(C)OC(=O)NCc1ccc(-c2cnc(-c3ccc(NC(=O)OC(C)C)cc3)s2)c(S(=O)(=O)NC(C)(C)C)c1 [Compound P9]
> 5.00	CC(=O)NCc1ccc(-c2cnc(-c3ccc(NC(=O)OC(C)C)cc3)s2)c(S(=O)(=O)NC(C)(C)C)c1 [Compound Q1, isopropyl N-[4-[5-[4-(acetamidomethyl)-2-(tert-butylsulfamoyl)phenyl]thiazol-2-yl]phenyl]carbamate]
